The text below walks through data of article PMC10470491, “Modulation of the functional interfaces between retroviral intasomes and the human nucleosome” (mBio, 2023).

Entries after “also recorded” stand apart in the source; their conditions may differ. *1 amine or outer side, *2 acyl side, *3 side chain or, on linkers, in order; H or OH if unused. Where a SMILES comes first, the peptide text is derived from it. Bridges are numbered along the chain shown (N, C = ends). Roman numbers before positions name the chains, in order. [ ]: non-standard residue; d: D form. Actinocin(9to1) = Cc1c2oc3c(C)ccc(C(=O)[*:1])c3nc-2c(C(=O)[*:2])c(N)c1=O; NMeV = CN[C@H](C(=O)O)C(C)C; Sar = CNCC(=O)O

Experiment [1] deals with PFV intasome/nucleosome complex. Briefly: AlphaLISA PFV intasome/nucleosome interaction assay. To be noted: for IC50: intasome/nucleosome AS assay, Fig. 3E; for IC50 / inhibition of intasome/nucleosome association in AS: increasing drug concentrations; for selection as intasome/nucleosome modulator in the OncoSET screen: 25 µM. It is filed as binding, prototype foamy virus (PFV); human mononucleosome. On the procedure:
AlphaLISA is a technology particularly suitable for bimolecular inhibitor screening assays using protein-protein interactions with purified recombinant proteins. The AlphaLISA assay development was performed in 96-well 12 area Alphaplate (reference 6052340, PerkinElmer, Waltham, MA, USA) with a final reaction volume of 40 µL. Cross-titration experiments of biotinylated MN (0–50 nM) against DIG-intasome (0–100 nM) were carried out to establish optimal assay concentrations for the binding assay. Ten microliters of each protein were diluted in the binding buffer 50 mM BisTris-propane pH 7, 100 mM NaCl, 0.1% (v/v) Tween-20, 0.1% (w/v) BSA, and 1 mM dithiothreitol. The plate was incubated at RT for 2 h in rotation. Ten microliters of anti-DIG acceptor beads (PerkinElmer, reference AL113) were then added, and after 1 h of incubation at RT with rotation, 10 µL of streptavidin […] (Perkin Elmer, reference 6760002) was mixed to the wells. This established a final concentration of 20 µg/mL for each bead. The plate was then incubated for 1 h at RT in the dark before the AlphaLISA signal was detected using an EnSpire Multimode Plate Reader (PerkinElmer). Negative control with binding buffer or only with one of the complexes was used to control the assay quality. Data were analyzed with GraphPad Prism 5.01 software. To evaluate tolerance for DMSO, the assay was performed as described above with an addition of 0.15–20% (v/v) of DMSO during the binding step. For the competition experiment, increasing concentrations of untagged intasome were titrated out in the 1-nM DIG-intasome/biotinylated nucleosome interaction assay.
For the AlphaLISA screening assay with the NIH OncoSET library, the binding conditions were optimized for use in 384-well plate (Optiplate, reference 6007290, PerkinElmer) with the same concentrations for complexes and beads in a final reaction volume of 20.5 µL (2.5% DMSO final concentration). The screening was first carried out with 25 µM of each compound pre-incubated for 1 h with 1 nM intasome/nucleosome complexes. Compounds were selected as inducing at least 50% decrease of the AlphaLISA signal control condition, and their inhibitory effect was further tested using dose-response curves. For compounds validation, counter select assay was performed using a short DNA fragment carrying a biotin and a DIG tag on each side. The AlphaLISA signal was monitoring using increasing concentrations of the double-tagged DNA, and the selected compounds were tested in optimized conditions at 10 µM. Any compound that causes decreased signal means that it interferes with AlphaLISA readout, and therefore, it is not relevant to this assay.

Another experiment deals with mononucleosome (MN). Briefly: histone eviction assay (EMSA / SDS-PAGE). Type of experiment: biochemical, human. The conditions noted are these: 10 µM or increasing concentrations. On the technique in general: Mobility shift assays separate free from complexed probe on a gel.
Experiment [2] concerns the target T1, PFV intasome (Human spumaretrovirus, UniProt P14350). The experiment in a line: biochemical. To be noted: 30 nM FITC PFV intasome, MN, drugs 0–25 µM. Type of experiment: biochemical, prototype foamy virus (PFV). Further details: Briefly, PFV IN and its cognate vDNA were mixed, and assembled intasomes were purified by size exclusion chromatography; octamers produced in E. coli. On the procedure: Integration assays using purified assembled intasomes were performed as followed: either 100 ng of naked DNA or 100 ng of DNA assembled on 100 ng of histone octamers (24 nM final concentration) was incubated with 30 nM final concentration of purified intasome in 100 mM NaCl, 20 mM BTP pH 7, 12.5 mM MgSO4 (for PFV intasome), or in 20 mM HEPES pH 7, 7.5% DMSO, 8% PEG, 10 mM MgCl2, 20 µM ZnCl2, 100 mM NaCl, 5 mM DTT final concentration (for HIV-1 intasome) in a final volume of 40 µL. The mix was then incubated at 37°C for 15 min and 1 h, respectively. Then, reaction was stopped by the addition of 5.5 µL of a mix containing 5% SDS and 0.25 M EDTA and deproteinized with proteinase K (Promega) for 1 h at 37°C. Nucleic acids were then precipitated with 150 µL of ethanol overnight at −20°C. Samples were then spun at top speed for 1 h at 4°C, and the pellets were dried and then resuspended with DNA loading buffer. Integration products were separated on an 8% native polyacrylamide gel.

The subject of experiment [3] is HIV-1 intasome (vDNA•IN•LEDGF/p75). The experiment in a line: in vitro HIV-1 concerted integration onto mononucleosome. Type of experiment: biochemical. To be noted: MN.
Experiment [4] addresses T1, PFV intasome. The experiment in a line: in vitro PFV integration into naked plasmid pBSK-601-Zeo DNA. Type of experiment: biochemical, prototype foamy virus (PFV). Set-up: Briefly, PFV IN and its cognate vDNA were mixed, and assembled intasomes were purified by size exclusion chromatography; made in house. The conditions noted are these: 10 µM. On the procedure: MNs were assembled as previously described for chromatin assembly ([7], [8]). Briefly, 5 µg of biotinylated 147 bp Widom fragment (TEBU-bio) were mixed with an excess of 10 µg of human native recombinant octamers produced in E. coli [purchased from the “Histone Source” Protein Expression and Purification (PEP) facility from the Colorado State University, https://histonesource-colostate.nbsstore.net] in Tris-HCl pH 7.7 and 2 M NaCl in 100 µl final volume. Salt dialysis was then performed to decrease the salt concentration to 0 using slide-A-Lyzer MINI dialysis device, 7 k MWCO (Fisher Scientific). Assembly was checked by electro-mobility shift assay (EMSA) on 8% native PAGE stained with SYBR safe and SDS-PAGE stained with instant blue. Eviction assays of the assembled nucleosome were incubated with increasing concentrations of drugs and then analyzed by EMSA or SDS-PAGE of the supernatant after their capture using streptavidin beads (MyONE T1 invitrogen). Naked DNA substrates (pBSK-601-Zeo vector plasmid containing 601 Widom repetitions or 147 bp 601 DNA fragment) used for comparative integration assays were treated as for nucleosome assembly. […]

Where [5] appears, read: OncoSET screen, 25 µM drug, 1 nM of each partner.

By IC50 is commonly meant the point on the concentration scale where inhibition reaches its midpoint. Higher therefore signals lower potency. On to `COc1cccc2c1C(=O)c1c(O)c3c(c(O)c1C2=O)C[C@@](O)(C(C)=O)C[C@@H]3O[C@H]1C[C@H](N)[C@H](O)[C@H](C)O1` [Daunorubicin, daunorubicin], for which, in experiment [1] (setting [5]), the “decrease in the AS signal” value was “at least 50%”. In experiment [1], the 50% inhibitory concentration (IC50) is 3240 ± 18 nM. Further, the “effect on the intasome/nucleosome AS signal” value in experiment [1] (retest at 10 µM, MN) is “strong inhibitory effect”. The “histone eviction / MN dissociation” value in the experiment with mononucleosome (MN) is recorded as “strong displacement of histones from the MN”. Further, the “inhibition of PFV integration into MNs” value at PFV intasome [2] is recorded as “able to inhibit PFV integration into MNs”.

`COc1cccc2c1C(=O)c1c(O)c3c(c(O)c1C2=O)C[C@@](O)(C(=O)CO)C[C@@H]3O` [Doxorubicinone, doxorubicinone]: the “histone eviction / MN dissociation” value with mononucleosome (MN) is recorded as “could not dissociate the MN”. Moreover, the “inhibition of in vitro HIV-1 integration” value in experiment [3] was “inefficient”. Further, the “inhibition of PFV integration into MNs” value at PFV intasome [2] is listed as “inefficient in inhibiting the in vitro integration”.

Consider `CC(=O)[C@]1(O)Cc2c(O)c3c(c(O)c2[C@@H](O[C@H]2C[C@H](N)[C@H](O)[C@H](C)O2)C1)C(=O)c1ccccc1C3=O` [Idarubicin, idarubicin], for which the “decrease in the AS signal” value in experiment [1] (setting [5]) is on record as “at least 50%”. Half-maximal inhibition in experiment [1] (IC50) was put at 450 ± 22 nM. Further, in experiment [1] (retest at 10 µM, MN), the “effect on the intasome/nucleosome AS signal” value is reported as “strong inhibitory effect”. Also, in the experiment with mononucleosome (MN), the “histone eviction / MN dissociation” value was “strong displacement of histones from the MN”. Further, the “inhibition of PFV integration into MNs” value against PFV intasome [2] was “able to inhibit PFV integration into MNs”.

Turning to `O=C1c2c(O)ccc(O)c2C(=O)c2c(NCCNCCO)ccc(NCCNCCO)c21` [Mitoxantrone, mitoxantrone], in experiment [1] (setting [5]), the “decrease in the AS signal” value is “at least 50%”. The half-inhibitory concentration (IC50) in experiment [1] came to 380 ± 50 nM. For the same compound, the “effect on the intasome/nucleosome AS signal” value in experiment [1] (retest at 10 µM, MN) was “strong inhibitory effect”. Moreover, the “inhibition of PFV integration into plasmid pBSK-601-Zeo DNA” value against PFV intasome [4] is listed as “remained inefficient”. Besides, the “inhibition of PFV integration into MNs” value at PFV intasome [2] is listed as “did not show any inhibitory effect on integration”.

Take `C=CC(=O)Nc1cc(Nc2nccc(-c3cn(C)c4ccccc34)n2)c(OC)cc1N(C)CCN(C)C` [Osimertinib, osimertinib]: the “decrease in the AS signal” value in experiment [1] (setting [5]) was “at least 50%”; in experiment [1] (retest at 10 µM, MN), 30–40%. Moreover, in experiment [1], the “inhibition of intasome/nucleosome association in AS” value was “no inhibition in the concentration range used”.

Turning to `COc1cccc2c1C(=O)c1c(O)c3c(c(O)c1C2=O)C[C@@](O)(C(=O)CO)C[C@@H]3O[C@H]1C[C@H](N)[C@H](O[C@@H]2CCCCO2)[C@H](C)O1` [Pirarubicin, pirarubicin], the “decrease in the AS signal” value in experiment [1] (setting [5]) was “at least 50%”. In experiment [1], this compound came in with an IC50 of 630 ± 20 nM. Moreover, the “effect on the intasome/nucleosome AS signal” value in experiment [1] (retest at 10 µM, MN) is “strong inhibitory effect”. In addition, the “histone eviction / MN dissociation” value with mononucleosome (MN) is “full shift of the nucleosomal DNA in addition to a strong MN dissociation”. On PFV intasome [2], the “inhibition of PFV integration into MNs” value is listed as “able to inhibit PFV integration into MNs”.

Regarding `CC/C(=C(\c1ccccc1)c1ccc(OCCN(C)C)cc1)c1ccccc1` [Tamoxifen, tamoxifen], the “inhibition of intasome/nucleosome association in AS” value in experiment [1] is on record as “only a slight inhibition effect”. The “inhibition of PFV integration into plasmid pBSK-601-Zeo DNA” value against PFV intasome [4] is reported as “remained inefficient”. Also, the “inhibition of PFV integration into MNs” value on PFV intasome [2] is listed as “inefficient in inhibiting integration”.

For `Cc1c2oc3c(C)ccc(C(=O)N[C@@H]4C(=O)N[C@H](C(C)C)C(=O)N5CCC[C@H]5C(=O)N(C)CC(=O)N(C)[C@@H](C(C)C)C(=O)O[C@@H]4C)c3nc-2c(C(=O)N[C@@H]2C(=O)N[C@H](C(C)C)C(=O)N3CCC[C@H]3C(=O)N(C)CC(=O)N(C)[C@@H](C(C)C)C(=O)O[C@@H]2C)c(N)c1=O` [actinomycin D] (I: T[dV]P[Sar][NMeV] / II: T[dV]P[Sar][NMeV]; ester I:1-I:C, II:1-II:C; linker I:N-II:N via Actinocin(9to1)), the “selection as intasome/nucleosome modulator in the OncoSET screen” value in experiment [1] (OncoSET screen) is given as “lack of effect”.

Take `N.N.[Cl][Pt][Cl]` [cisplatin]: the “inhibition of PFV integration into MNs” value against PFV intasome [2] is “only a slight inhibition of integration into nucleosome”.

On to `COc1cccc2c1C(=O)c1c(O)c3c(c(O)c1C2=O)C[C@@](O)(C(=O)CO)C[C@@H]3O[C@H]1C[C@H](N)[C@@H](O)[C@H](C)O1` [epirubicin], for which the “selection as intasome/nucleosome modulator in the OncoSET screen” value in experiment [1] (OncoSET screen) is reported as “not selected as an intasome/nucleosome modulator; also recorded: inefficient in inhibiting the intasome/nucleosome complex”.

In the case of `O=C1CCC(N2C(=O)c3ccccc3C2=O)C(=O)N1` (centres unmarked) [thalidomide], at PFV intasome [2], the “inhibition of PFV integration into MNs” value is on record as “did not show any effect”.

With `CC[C@@]1(O)C(=O)OCc2c1cc1n(c2=O)Cc2cc3c(CN(C)C)c(O)ccc3nc2-1` [topotecan], the “inhibition of PFV integration into MNs” value on PFV intasome [2] is reported as “did not show any effect”.

Take `CCCCC(=O)OCC(=O)[C@]1(O)Cc2c(O)c3c(c(O)c2[C@@H](O[C@H]2C[C@H](NC(=O)C(F)(F)F)[C@H](O)[C@H](C)O2)C1)C(=O)c1c(OC)cccc1C3=O` [valrubicin]: the “selection as intasome/nucleosome modulator in the OncoSET screen” value in experiment [1] (OncoSET screen) is on record as “inefficiency”.
